ChEMBL document CHEMBL5463729, “Data for DCP probe BAY 1753011” (2023)

Legend:
Conditions in all cases: Compound concentration 10.0 uM
[1] = molecular target: Endothelin receptor type B (Homo sapiens) (UniProt P24530)
[2] = molecular target: Serine/threonine-protein kinase 10 (Homo sapiens) (UniProt O94804); test: Inhibition of LOK(h) at 10.0 µM in the Eurofins Kinase panel
[3] = molecular target: Mitogen-activated protein kinase 1 (Homo sapiens) (UniProt P28482); test: Inhibition of MAPK1(h) at 10.0 µM in the Eurofins Kinase panel
[4] = molecular target: Mitogen-activated protein kinase kinase kinase 21 (Homo sapiens) (UniProt Q5TCX8); test: Inhibition of MLK4(h) at 10.0 µM in the Eurofins Kinase panel
[5] = molecular target: Wee1-like protein kinase 2 (Homo sapiens) (UniProt P0C1S8); test: Inhibition of Wee1B(h) at 10.0 µM in the Eurofins Kinase panel
[6] = molecular target: Dual specificity mitogen-activated protein kinase kinase 2 (Homo sapiens) (UniProt P36507); test: Inhibition of MEK2(h) at 10.0 µM in the Eurofins Kinase panel
[7] = molecular target: Serine/threonine-protein kinase PRP4 homolog (Homo sapiens) (UniProt Q13523); test: Inhibition of PRP4(h) at 10.0 µM in the Eurofins Kinase panel
[8] = molecular target: Serine/threonine-protein kinase MAK (Homo sapiens) (UniProt P20794); test: Inhibition of MAK(h) at 10.0 µM in the Eurofins Kinase panel
[9] = molecular target: Dual specificity tyrosine-phosphorylation-regulated kinase 2 (Homo sapiens) (UniProt Q92630); test: Inhibition of DYRK2(h) at 10.0 µM in the Eurofins Kinase panel
[10] = molecular target: Sodium-dependent noradrenaline transporter (Homo sapiens, UniProt P23975)
[11] = molecular target: Leukocyte tyrosine kinase receptor (Homo sapiens) (UniProt P29376); test: Inhibition of LTK(h) at 10.0 µM in the Eurofins Kinase panel
[12] = molecular target: Endothelin-1 receptor (Homo sapiens) (UniProt P25101)
[13] = molecular target: Adenosine receptor A2a (Homo sapiens) (UniProt P29274)
[14] = molecular target: Histamine H1 receptor (Homo sapiens) (UniProt P35367)
[15] = molecular target: Serine/threonine-protein kinase D2 (Homo sapiens) (UniProt Q9BZL6); test: Inhibition of PKD2(h) at 10.0 µM in the Eurofins Kinase panel
[16] = molecular target: Mitogen-activated protein kinase 9 (Homo sapiens) (UniProt P45984); test: Inhibition of JNK2alpha2(h) at 10.0 µM in the Eurofins Kinase panel
[17] = molecular target: T1, Muscarinic acetylcholine receptor M5 (Homo sapiens) (UniProt P08912)
T1 sequence (whole entry): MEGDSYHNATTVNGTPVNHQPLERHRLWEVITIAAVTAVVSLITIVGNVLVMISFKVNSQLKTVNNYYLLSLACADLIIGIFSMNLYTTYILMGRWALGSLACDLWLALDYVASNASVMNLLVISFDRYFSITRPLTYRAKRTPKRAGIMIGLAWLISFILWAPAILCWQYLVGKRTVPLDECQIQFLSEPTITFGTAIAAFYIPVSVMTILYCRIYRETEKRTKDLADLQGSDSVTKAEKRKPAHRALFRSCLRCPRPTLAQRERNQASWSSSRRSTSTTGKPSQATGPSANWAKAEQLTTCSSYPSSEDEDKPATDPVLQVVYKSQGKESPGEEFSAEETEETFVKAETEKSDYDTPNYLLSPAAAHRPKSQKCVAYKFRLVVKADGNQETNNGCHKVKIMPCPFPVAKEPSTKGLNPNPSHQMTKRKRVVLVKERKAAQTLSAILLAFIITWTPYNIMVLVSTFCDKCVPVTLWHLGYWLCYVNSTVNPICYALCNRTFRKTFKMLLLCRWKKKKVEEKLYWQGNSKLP

[18] = molecular target: Serine/threonine-protein kinase PAK 2 (Homo sapiens) (UniProt Q13177); test: Inhibition of PAK2(h) at 10.0 µM in the Eurofins Kinase panel
[19] = molecular target: Serine/threonine-protein kinase 32C (Homo sapiens) (UniProt Q86UX6); test: Inhibition of STK32C(h) at 10.0 µM in the Eurofins Kinase panel
[20] = molecular target: Cyclin-dependent kinase-like 4 (Homo sapiens) (UniProt Q5MAI5); test: Inhibition of CDKL4(h) at 10.0 µM in the Eurofins Kinase panel
[21] = molecular target: T2, D(4) dopamine receptor (Homo sapiens) (UniProt P21917)
T2 sequence (whole entry): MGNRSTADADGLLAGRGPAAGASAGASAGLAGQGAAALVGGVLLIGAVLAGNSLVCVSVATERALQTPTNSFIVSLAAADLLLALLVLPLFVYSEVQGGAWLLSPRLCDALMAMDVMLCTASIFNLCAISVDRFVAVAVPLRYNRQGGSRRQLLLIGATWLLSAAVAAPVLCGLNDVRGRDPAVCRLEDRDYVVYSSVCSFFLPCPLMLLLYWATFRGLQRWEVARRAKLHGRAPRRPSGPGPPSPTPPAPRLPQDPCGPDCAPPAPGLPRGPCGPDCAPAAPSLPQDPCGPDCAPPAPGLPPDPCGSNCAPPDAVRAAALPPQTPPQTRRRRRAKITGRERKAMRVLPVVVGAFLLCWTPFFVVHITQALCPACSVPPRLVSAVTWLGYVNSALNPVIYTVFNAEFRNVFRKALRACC

[22] = molecular target: Serine/threonine-protein kinase ULK2 (Homo sapiens) (UniProt Q8IYT8); test: Inhibition of ULK2(h) at 10.0 µM in the Eurofins Kinase panel
[23] = molecular target: Insulin receptor (Homo sapiens) (UniProt P06213); test: Inhibition of IR(h), activated at 10.0 µM in the Eurofins Kinase panel
[24] = molecular target: Tyrosine-protein kinase Lck (Homo sapiens) (UniProt P06239); test: Inhibition of Lck(h) activated at 10.0 µM in the Eurofins Kinase panel
[25] = molecular target: CDK18/Cyclin Y (Homo sapiens) (UniProt Q07002+Q8ND76); test: Inhibition of CDK18/cyclinY(h) at 10.0 µM in the Eurofins Kinase panel; assay type: protein-complex assay
[26] = molecular target: Serine/threonine-protein kinase 4 (Homo sapiens) (UniProt Q13043); test: Inhibition of MST1(h) at 10.0 µM in the Eurofins Kinase panel
[27] = molecular target: Eukaryotic translation initiation factor 2-alpha kinase 1 (Homo sapiens) (UniProt Q9BQI3); test: Inhibition of HRI(h) at 10.0 µM in the Eurofins Kinase panel
[28] = molecular target: Serine/threonine-protein kinase 3 (Homo sapiens) (UniProt Q13188); test: Inhibition of MST2(h) at 10.0 µM in the Eurofins Kinase panel
ATR/ATRIP (Homo sapiens) = ATR/ATRIP (Homo sapiens) (UniProt Q13535+Q8WXE1); test: Inhibition of ATR/ATRIP(h) at 10.0 µM in the Eurofins Kinase panel; assay type: protein-complex assay

Sequence of Histamine H1 receptor (Homo sapiens) (P35367 whole entry): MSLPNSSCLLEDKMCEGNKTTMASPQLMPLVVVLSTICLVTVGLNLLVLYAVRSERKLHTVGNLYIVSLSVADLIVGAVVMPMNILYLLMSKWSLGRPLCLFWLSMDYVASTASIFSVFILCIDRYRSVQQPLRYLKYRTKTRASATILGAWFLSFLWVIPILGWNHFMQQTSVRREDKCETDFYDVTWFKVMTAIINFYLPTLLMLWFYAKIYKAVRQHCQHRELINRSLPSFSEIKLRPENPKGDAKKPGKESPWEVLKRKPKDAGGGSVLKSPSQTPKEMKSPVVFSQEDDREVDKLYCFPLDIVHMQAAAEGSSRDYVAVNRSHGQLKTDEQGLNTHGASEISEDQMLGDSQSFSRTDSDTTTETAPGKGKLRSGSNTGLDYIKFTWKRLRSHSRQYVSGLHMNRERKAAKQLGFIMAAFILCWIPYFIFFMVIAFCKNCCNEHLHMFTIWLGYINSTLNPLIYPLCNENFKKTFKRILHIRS
Sequence of Serine/threonine-protein kinase PRP4 homolog (Homo sapiens) (Q13523 whole entry): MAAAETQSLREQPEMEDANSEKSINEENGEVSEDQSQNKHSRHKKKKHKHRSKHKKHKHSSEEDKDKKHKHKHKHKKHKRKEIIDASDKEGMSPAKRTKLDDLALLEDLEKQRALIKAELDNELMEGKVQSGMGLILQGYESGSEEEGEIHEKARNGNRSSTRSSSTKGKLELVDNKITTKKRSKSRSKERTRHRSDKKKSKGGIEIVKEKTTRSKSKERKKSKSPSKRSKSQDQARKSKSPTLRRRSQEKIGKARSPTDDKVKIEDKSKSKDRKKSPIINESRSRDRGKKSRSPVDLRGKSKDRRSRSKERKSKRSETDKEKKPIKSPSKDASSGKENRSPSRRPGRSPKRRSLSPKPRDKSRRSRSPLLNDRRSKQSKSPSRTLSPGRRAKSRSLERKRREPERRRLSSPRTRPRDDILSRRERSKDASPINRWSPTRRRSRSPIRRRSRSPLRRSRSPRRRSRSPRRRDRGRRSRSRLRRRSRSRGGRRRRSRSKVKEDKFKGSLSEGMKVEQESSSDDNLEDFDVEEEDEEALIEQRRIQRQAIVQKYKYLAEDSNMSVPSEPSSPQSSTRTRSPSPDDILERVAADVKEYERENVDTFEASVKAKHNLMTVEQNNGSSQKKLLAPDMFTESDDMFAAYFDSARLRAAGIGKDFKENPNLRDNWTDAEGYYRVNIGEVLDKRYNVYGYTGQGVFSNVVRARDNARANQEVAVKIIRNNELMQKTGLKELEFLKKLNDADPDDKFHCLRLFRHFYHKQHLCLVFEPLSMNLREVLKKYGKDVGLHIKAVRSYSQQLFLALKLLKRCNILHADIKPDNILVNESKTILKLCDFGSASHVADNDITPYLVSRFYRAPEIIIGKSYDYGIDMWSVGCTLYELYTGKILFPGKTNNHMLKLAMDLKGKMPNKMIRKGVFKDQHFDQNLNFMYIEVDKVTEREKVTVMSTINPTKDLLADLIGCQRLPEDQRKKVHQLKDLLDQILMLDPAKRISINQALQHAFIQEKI
Sequence of Mitogen-activated protein kinase 1 (Homo sapiens) (P28482 whole entry): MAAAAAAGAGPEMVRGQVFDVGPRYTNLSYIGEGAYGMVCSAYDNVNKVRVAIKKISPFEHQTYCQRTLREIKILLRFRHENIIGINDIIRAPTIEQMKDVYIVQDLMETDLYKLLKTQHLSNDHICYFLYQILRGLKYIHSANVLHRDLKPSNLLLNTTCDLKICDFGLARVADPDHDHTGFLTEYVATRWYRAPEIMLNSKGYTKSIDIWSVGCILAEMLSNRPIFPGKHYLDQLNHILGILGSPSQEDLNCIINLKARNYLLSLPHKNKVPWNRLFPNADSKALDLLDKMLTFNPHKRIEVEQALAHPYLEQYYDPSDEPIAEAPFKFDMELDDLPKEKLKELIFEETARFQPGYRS
Sequence of Serine/threonine-protein kinase ULK2 (Homo sapiens) (Q8IYT8 whole entry): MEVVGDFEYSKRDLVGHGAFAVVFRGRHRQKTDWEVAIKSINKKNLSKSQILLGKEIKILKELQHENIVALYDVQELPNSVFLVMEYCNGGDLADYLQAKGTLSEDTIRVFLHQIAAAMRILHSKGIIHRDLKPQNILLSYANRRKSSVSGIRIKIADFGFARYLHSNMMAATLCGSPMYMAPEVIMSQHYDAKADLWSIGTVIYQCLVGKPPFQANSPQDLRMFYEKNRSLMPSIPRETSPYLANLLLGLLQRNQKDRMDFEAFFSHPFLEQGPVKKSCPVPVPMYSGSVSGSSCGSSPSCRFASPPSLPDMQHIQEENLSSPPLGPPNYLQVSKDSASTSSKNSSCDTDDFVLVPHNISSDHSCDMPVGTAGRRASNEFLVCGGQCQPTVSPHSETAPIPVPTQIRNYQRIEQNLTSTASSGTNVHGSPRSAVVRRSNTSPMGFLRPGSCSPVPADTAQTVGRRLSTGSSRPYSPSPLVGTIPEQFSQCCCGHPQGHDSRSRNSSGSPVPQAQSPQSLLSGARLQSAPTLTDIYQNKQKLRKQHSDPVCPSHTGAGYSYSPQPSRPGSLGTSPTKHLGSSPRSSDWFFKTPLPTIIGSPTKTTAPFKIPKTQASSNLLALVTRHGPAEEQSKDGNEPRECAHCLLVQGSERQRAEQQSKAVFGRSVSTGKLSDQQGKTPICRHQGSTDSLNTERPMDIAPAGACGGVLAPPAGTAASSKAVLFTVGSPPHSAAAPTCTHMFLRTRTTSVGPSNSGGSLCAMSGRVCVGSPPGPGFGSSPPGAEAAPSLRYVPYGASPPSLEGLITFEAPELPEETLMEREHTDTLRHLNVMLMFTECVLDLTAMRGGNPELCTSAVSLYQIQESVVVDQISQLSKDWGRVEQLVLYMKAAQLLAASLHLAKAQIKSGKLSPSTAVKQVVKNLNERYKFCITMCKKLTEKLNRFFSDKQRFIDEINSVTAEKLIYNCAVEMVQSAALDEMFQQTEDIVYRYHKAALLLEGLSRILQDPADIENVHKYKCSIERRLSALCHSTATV
Sequence of Serine/threonine-protein kinase D2 (Homo sapiens) (Q9BZL6 whole entry): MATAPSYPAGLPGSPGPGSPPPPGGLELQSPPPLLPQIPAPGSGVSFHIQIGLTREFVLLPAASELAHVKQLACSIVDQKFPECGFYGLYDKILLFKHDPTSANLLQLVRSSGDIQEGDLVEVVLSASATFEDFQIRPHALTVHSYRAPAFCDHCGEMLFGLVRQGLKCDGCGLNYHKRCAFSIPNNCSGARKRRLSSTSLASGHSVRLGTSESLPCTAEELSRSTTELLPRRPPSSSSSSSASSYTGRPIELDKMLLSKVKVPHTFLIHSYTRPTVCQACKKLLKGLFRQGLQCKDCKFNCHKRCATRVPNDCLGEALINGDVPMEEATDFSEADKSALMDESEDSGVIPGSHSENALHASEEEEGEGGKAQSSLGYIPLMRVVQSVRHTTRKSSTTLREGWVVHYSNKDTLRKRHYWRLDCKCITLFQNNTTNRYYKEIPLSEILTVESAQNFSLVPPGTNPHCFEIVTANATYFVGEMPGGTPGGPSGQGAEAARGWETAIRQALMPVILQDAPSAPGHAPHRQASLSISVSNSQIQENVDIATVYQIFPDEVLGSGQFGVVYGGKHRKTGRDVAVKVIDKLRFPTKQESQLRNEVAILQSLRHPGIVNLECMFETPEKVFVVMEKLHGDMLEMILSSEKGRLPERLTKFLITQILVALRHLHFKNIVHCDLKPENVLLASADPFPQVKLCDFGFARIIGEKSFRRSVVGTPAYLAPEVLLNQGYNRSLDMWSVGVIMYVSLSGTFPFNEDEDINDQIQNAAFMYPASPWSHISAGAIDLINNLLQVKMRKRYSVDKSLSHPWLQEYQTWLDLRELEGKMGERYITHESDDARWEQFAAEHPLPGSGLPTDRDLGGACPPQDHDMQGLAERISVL
Sequence of Dual specificity mitogen-activated protein kinase kinase 2 (Homo sapiens) (P36507 whole entry): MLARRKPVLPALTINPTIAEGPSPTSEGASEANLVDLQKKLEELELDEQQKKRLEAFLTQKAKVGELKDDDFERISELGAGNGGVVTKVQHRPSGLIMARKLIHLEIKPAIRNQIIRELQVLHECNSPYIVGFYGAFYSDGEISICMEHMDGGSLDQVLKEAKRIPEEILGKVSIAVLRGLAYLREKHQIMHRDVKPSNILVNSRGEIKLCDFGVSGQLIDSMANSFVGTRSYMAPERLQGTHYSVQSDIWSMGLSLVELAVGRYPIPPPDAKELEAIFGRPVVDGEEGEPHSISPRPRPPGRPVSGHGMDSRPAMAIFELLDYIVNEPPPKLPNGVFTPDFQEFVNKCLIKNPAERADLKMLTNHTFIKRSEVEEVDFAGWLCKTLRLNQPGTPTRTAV
Sequence of Mitogen-activated protein kinase 9 (Homo sapiens) (P45984 whole entry, looked up): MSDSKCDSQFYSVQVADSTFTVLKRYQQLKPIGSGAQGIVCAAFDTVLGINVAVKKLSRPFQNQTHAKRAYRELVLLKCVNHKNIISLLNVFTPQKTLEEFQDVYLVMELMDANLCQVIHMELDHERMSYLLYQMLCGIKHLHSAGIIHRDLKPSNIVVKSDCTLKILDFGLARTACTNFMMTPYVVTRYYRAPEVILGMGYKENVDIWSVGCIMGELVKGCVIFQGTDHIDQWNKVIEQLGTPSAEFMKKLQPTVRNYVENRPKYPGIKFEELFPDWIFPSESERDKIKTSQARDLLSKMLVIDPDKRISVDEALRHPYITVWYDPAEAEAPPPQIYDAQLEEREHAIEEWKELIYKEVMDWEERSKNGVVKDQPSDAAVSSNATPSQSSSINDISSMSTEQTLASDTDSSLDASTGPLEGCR
Sequence of Endothelin-1 receptor (Homo sapiens) (P25101 whole entry): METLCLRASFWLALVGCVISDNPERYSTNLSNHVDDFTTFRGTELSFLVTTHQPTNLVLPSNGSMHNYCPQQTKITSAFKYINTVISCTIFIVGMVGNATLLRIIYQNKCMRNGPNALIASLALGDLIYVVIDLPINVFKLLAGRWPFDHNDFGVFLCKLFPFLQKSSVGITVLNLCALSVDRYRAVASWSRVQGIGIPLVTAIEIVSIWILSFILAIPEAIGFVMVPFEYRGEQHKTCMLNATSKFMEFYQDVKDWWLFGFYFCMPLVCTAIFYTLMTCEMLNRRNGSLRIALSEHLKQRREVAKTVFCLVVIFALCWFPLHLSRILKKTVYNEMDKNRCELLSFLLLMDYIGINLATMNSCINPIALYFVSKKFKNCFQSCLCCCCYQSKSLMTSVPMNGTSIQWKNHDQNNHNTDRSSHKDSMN

SMILES	inhibition [1] [%]	inhibition [2] [%]	inhibition [3] [%]	inhibition [4] [%]	inhibition [5] [%]	inhibition [6] [%]	inhibition [7] [%]	inhibition [8] [%]	inhibition [9] [%]	inhibition [10] [%]	inhibition [11] [%]	inhibition [12] [%]	inhibition [13] [%]	inhibition [14] [%]	inhibition [15] [%]	inhibition [16] [%]	inhibition [17] [%]	inhibition [18] [%]	inhibition [19] [%]	inhibition [20] [%]	also measured
O=c1n(Cc2cncn2-c2cccc(Cl)c2)nc(-c2ccc(Cl)cc2)n1C[C@H](O)C(F)(F)F	1	10.4	-0.83	8.45	7.62	6.76	-1.84	3.99	-8.9	8	5.77	-3	1	28.5	1.71	2.28	-5.11	1.99	-2.95	-1.89	inhibition [21]: -4.7%; inhibition [22]: 1.8%; inhibition [23]: 2.21%; inhibition [24]: 2.09%; inhibition [25]: -1.75%; inhibition [26]: 2.53%; inhibition [27]: -5.05%; inhibition [28]: -1.52%; inhibition (ATR/ATRIP (Homo sapiens)): 10.2%
C[C@H](O)c1nc(Cn2nc(-c3ccc(Cl)cc3)n(C[C@H](O)C(F)(F)F)c2=O)nn1-c1cccc(Cl)c1 [PECAVAPTAN]	5	2.48	7.33	6.1	7.48	0.27	6.82	5.13	-0.76	62	4.2	18	4	12	1.59	-1.69	-1.8	3.11	1.11	5.63	inhibition [21]: 19.5%; inhibition [22]: 5.09%; inhibition [23]: -4.02%; inhibition [24]: -0.21%; inhibition [25]: 2.34%; inhibition [26]: 9.3%; inhibition [27]: 6.64%; inhibition [28]: -2.77%; inhibition (ATR/ATRIP (Homo sapiens)): -5.29%
